Measured values taken from PubChem BioAssay AID330 (DTP/NCI, 2004).
“And” between values parts separate entries of the source, which are not always exact repeats. Equal entries are not always repeated. Inconclusive results and toxic doses are left out.

System: P388 leukemia ip, CD2F1 mice, survival T/C
Experiment: NCI In Vivo Anticancer Drug Screen. Data for tumor model P388 Leukemia (intraperitoneal) in CD2F1 (CDF1) mice
Conditions: endpoint: median survival time, higher = longer survival
Procedure: The antitumor activity of compounds was measured in mice bearing transplantable tumors. Survival or tumor size were measured and the results are expressed as the measurement made in the treated group (T) divided by the measurement made in the vehicle treated control group (C). The tumor model used in this assay is P388 Leukemia (intraperitoneal) in CD2F1 (CDF1) mice

[1] = dose: 50.0 mg/kg/injection, schedule: Q01DX009 (ip), vehicle: Klucel (hydroxypropylcellulose) (HPC)
[2] = dose: 100.0 mg/kg/injection, schedule: Q01DX009 (ip), vehicle: Klucel (hydroxypropylcellulose) (HPC)
[3] = dose: 200.0 mg/kg/injection, schedule: Q01DX009 (ip), vehicle: Klucel (hydroxypropylcellulose) (HPC)
[4] = dose: 12.5 mg/kg/injection, schedule: Q01DX009 (ip), vehicle: saline
[5] = dose: 50.0 mg/kg/injection, schedule: Q01DX005 (ip), vehicle: saline with Tween-80
[6] = dose: 200.0 mg/kg/injection, schedule: Q04DX003 (ip), vehicle: saline with Tween-80
[7] = dose: 60.0 mg/kg/injection, schedule: Q01DX005 (ip), vehicle: Klucel (hydroxypropylcellulose) (HPC)
[8] = dose: 120.0 mg/kg/injection, schedule: Q01DX005 (ip), vehicle: Klucel (hydroxypropylcellulose) (HPC)
[9] = dose: 50.0 mg/kg/injection, schedule: Q01DX005 (ip), vehicle: Klucel (hydroxypropylcellulose) (HPC)
[10] = dose: 100.0 mg/kg/injection, schedule: Q01DX005 (ip), vehicle: Klucel (hydroxypropylcellulose) (HPC)
[11] = dose: 200.0 mg/kg/injection, schedule: Q01DX005 (ip), vehicle: Klucel (hydroxypropylcellulose) (HPC)

**Q.** For `Nc1nc(Cl)nc2c1ncn2C1OC(CO)C(O)C1F` (configuration not stated), which T/C (dose: 12.5 mg/kg/injection, schedule: Q01DX005 (ip), vehicle: saline) is on record?
**A.** The T/C was 122 % of control.

**Q.** And the T/C (dose: 200.0 mg/kg/injection, schedule: Q01DX005 (ip), vehicle: saline)?
**A.** Its T/C is 159 % of control.

**Q.** Which results are given for `CC1Cc2nc3ccccc3c(=O)n2O1` (configuration not stated)?
**A.** T/C [1]: 103 % of control; T/C [2]: 107 % of control; T/C [3]: 103 % of control

**Q.** With `O=NN1CCNC1=O` as the molecule, how does the T/C (dose: 1.5 mg/kg/injection, schedule: Q04DX003 (ip), vehicle: saline) read?
**A.** Its T/C is 113 % of control.

**Q.** And the T/C (dose: 6.25 mg/kg/injection, schedule: Q01DX009 (ip), vehicle: saline)?
**A.** The T/C was 168 % of control.

**Q.** And the T/C [4]?
**A.** The T/C was 245 % of control.

**Q.** What about the T/C (dose: 12.5 mg/kg/injection, schedule: Q04DX003 (ip), vehicle: saline) of the same molecule?
**A.** The T/C was 163 % of control.

**Q.** And the T/C (dose: 16.5 mg/kg/injection, schedule: Q04DX003 (ip), vehicle: saline)?
**A.** The T/C was 187 % of control.

**Q.** What about the T/C (dose: 25.0 mg/kg/injection, schedule: Q04DX003 (ip), vehicle: saline) of the same molecule?
**A.** The T/C was 187 % of control and 213 % of control.

**Q.** Which T/C (dose: 25.0 mg/kg/injection, schedule: Q01DX005 (ip), vehicle: saline) does the source give for `CCN(CC)CCOc1ccc(-c2cc(-c3ccccc3)nc(N)n2)cc1` here?
**A.** Its T/C is 106 % of control.

**Q.** What about the T/C (dose: 50.0 mg/kg/injection, schedule: Q01DX005 (ip), vehicle: saline) of the same molecule?
**A.** The T/C was 98 % of control and 100 % of control and 106 % of control.

**Q.** And the T/C (dose: 100.0 mg/kg/injection, schedule: Q01DX005 (ip), vehicle: saline)?
**A.** Its T/C is 111 % of control and 114 % of control and 123 % of control.

**Q.** What does the source list for `C/C=C(\C)C(=O)OC1C(C)C2(O)C(C=C(CO)CC3(O)C(=O)C(C)=CC32)C2C(C)(C)C12OC(=O)CCCCCCCCC` (configuration not stated)?
**A.** T/C (dose: 0.13 mg/kg/injection, schedule: Q01DX009 (ip), vehicle: saline + alcohol): 124 % of control; T/C (dose: 0.5 mg/kg/injection, schedule: Q01DX009 (ip), vehicle: saline + alcohol): 124 % of control

**Q.** Which results are given for `CCOC(=O)c1c(-c2ccccc2)nn2c1COC(=O)C2`?
**A.** T/C [5]: 103 % of control; T/C (dose: 100.0 mg/kg/injection, schedule: Q01DX005 (ip), vehicle: saline with Tween-80): 99 % of control; T/C (dose: 200.0 mg/kg/injection, schedule: Q01DX005 (ip), vehicle: saline with Tween-80): 98 % of control

**Q.** `CSC1(CCC#N)C(=O)Nc2ccccc21` (configuration not stated) was tested. Which T/C [6] did it give?
**A.** The T/C was 102 % of control.

**Q.** And the T/C (dose: 400.0 mg/kg/injection, schedule: Q04DX003 (ip), vehicle: saline with Tween-80)?
**A.** Its T/C is 108 % of control.

**Q.** For `CN1C(=O)N(C)[C@@H]2CC(=O)c3ccc(C(F)(F)F)cc3N2C1=O`, which T/C [7] is on record?
**A.** The T/C was 101 % of control.

**Q.** What about the T/C [8] of the same molecule?
**A.** The T/C was 107 % of control.

**Q.** What about the T/C (dose: 240.0 mg/kg/injection, schedule: Q01DX005 (ip), vehicle: Klucel (hydroxypropylcellulose) (HPC)) of the same molecule?
**A.** Its T/C is 103 % of control.

**Q.** With `COC(=O)c1n[nH]n(Cc2ccccc2)c1=O` (tested in a mixture with another compound) as the molecule, how does the T/C [9] read?
**A.** The T/C was 103 % of control.

**Q.** And the T/C [10]?
**A.** Its T/C is 92 % of control.

**Q.** And the T/C [11]?
**A.** The T/C was 92 % of control.

**Q.** `CC1=C(CO)C(=O)OC(C(C)C2CCC3C4CC5OC56C(O)CCC(=O)C6(C)C4CCC23C)C1` (configuration not stated) was tested. Which T/C (dose: 11.15 mg/kg/injection, schedule: Q01DX009 (ip), vehicle: saline + alcohol) did it give?
**A.** Its T/C is 95 % of control.

**Q.** And the T/C (dose: 22.3 mg/kg/injection, schedule: Q01DX009 (ip), vehicle: saline + alcohol)?
**A.** The T/C was 99 % of control.

**Q.** What about the T/C (dose: 44.6 mg/kg/injection, schedule: Q01DX009 (ip), vehicle: saline + alcohol) of the same molecule?
**A.** The T/C was 101 % of control.

**Q.** For `CCN1CC2(C)CCC(OC)C34C1[C@H](C(=O)[C@@H]23)[C@]1(O)CC[C@H]2C[C@H]4[C@H]1C(=O)O2` (some centres not stated), which T/C (dose: 1.0 mg/kg/injection, schedule: Q01DX009 (ip), vehicle: Klucel (hydroxypropylcellulose) (HPC)) is on record?
**A.** The T/C was 95 % of control.

**Q.** What about the T/C (dose: 2.0 mg/kg/injection, schedule: Q01DX009 (ip), vehicle: Klucel (hydroxypropylcellulose) (HPC)) of the same molecule?
**A.** Its T/C is 96 % of control.

**Q.** And the T/C (dose: 4.0 mg/kg/injection, schedule: Q01DX009 (ip), vehicle: Klucel (hydroxypropylcellulose) (HPC))?
**A.** Its T/C is 98 % of control.

**Q.** `Fc1cccc2c(SCCCCCSc3c4ccccc4nc4c(F)cccc34)c3ccccc3nc12` was tested. Which T/C [7] did it give?
**A.** The T/C was 93 % of control.

**Q.** And the T/C [8]?
**A.** Its T/C is 89 % of control.

**Q.** `c1ccc(C2(c3ccccc3)CN3CCSC3=N2)cc1` was tested. Which T/C (dose: 12.5 mg/kg/injection, schedule: Q04DX003 (ip), vehicle: saline with Tween-80) did it give?
**A.** Its T/C is 104 % of control.

**Q.** What about the T/C (dose: 25.0 mg/kg/injection, schedule: Q04DX003 (ip), vehicle: saline with Tween-80) of the same molecule?
**A.** Its T/C is 103 % of control.

**Q.** And the T/C (dose: 50.0 mg/kg/injection, schedule: Q04DX003 (ip), vehicle: saline with Tween-80)?
**A.** The T/C was 99 % of control.

**Q.** What about the T/C (dose: 100.0 mg/kg/injection, schedule: Q04DX003 (ip), vehicle: saline with Tween-80) of the same molecule?
**A.** Its T/C is 108 % of control.

**Q.** What about the T/C [6] of the same molecule?
**A.** Its T/C is 103 % of control.

**Q.** What does the source list for `CCn1c2ccc(C=O)cc2c2cc([N+](=O)[O-])ccc21`?
**A.** T/C [9]: 92 % of control; T/C [10]: 86 % of control; T/C [11]: 86 % of control

**Q.** What does the source list for `O=C1c2ccccc2C(=C2c3ccccc3C(=O)c3ccccc32)c2ccccc21`?
**A.** T/C [1]: 99 % of control; T/C [2]: 91 % of control; T/C [3]: 92 % of control; T/C (dose: 400.0 mg/kg/injection, schedule: Q01DX009 (ip), vehicle: Klucel (hydroxypropylcellulose) (HPC)): 97 % of control

**Q.** What does the source list for `CCCCCCCCN(CCCCCCCC)C(=N)c1ccnc2ccccc12`?
**A.** T/C (dose: 6.25 mg/kg/injection, schedule: Q01DX005 (ip), vehicle: saline with Tween-80): 101 % of control; T/C (dose: 12.5 mg/kg/injection, schedule: Q01DX005 (ip), vehicle: saline with Tween-80): 101 % of control; T/C (dose: 25.0 mg/kg/injection, schedule: Q01DX005 (ip), vehicle: saline with Tween-80): 97 % of control; T/C [5]: 96 % of control

**Q.** What does the source list for `O=S(=O)(O)SCCN1CCCC1`?
**A.** T/C [4]: 105 % of control; T/C (dose: 25.0 mg/kg/injection, schedule: Q01DX009 (ip), vehicle: saline): 110 % of control; T/C (dose: 50.0 mg/kg/injection, schedule: Q01DX009 (ip), vehicle: saline): 110 % of control

**Q.** With `Cc1c[nH]c2nc(C)n(-c3ccccc3)c(=N)c12` as the molecule, how does the T/C (dose: 12.5 mg/kg/injection, schedule: Q01DX005 (ip), vehicle: Klucel (hydroxypropylcellulose) (HPC)) read?
**A.** Its T/C is 100 % of control.

**Q.** And the T/C (dose: 25.0 mg/kg/injection, schedule: Q01DX005 (ip), vehicle: Klucel (hydroxypropylcellulose) (HPC))?
**A.** The T/C was 93 % of control.

**Q.** And the T/C [9]?
**A.** The T/C was 101 % of control and 96 % of control.
